Laboratory results taken from US9708314B2, “Heterocyclic amide compound” (NISSAN CHEMICAL INDUSTRIES, LTD., priority 2013, dated 2017).

Experiments:
Type in all cases: in vivo
[1] = tested on: transplanted Oryza sativa; experiment: Test Example 1: effect on crop, application before weed generation in submerged conditions; settings: Application herbicide amount 320 g/ha; Seventeenth Table
How it was run: (§1)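 Submerged pot test: alluvial soil, 4 cm water, seeds sown mixed, 2.5-leaf rice transplanted; emulsion in water applied to surface day of sowing, dose g/ha; greenhouse 25–30° C.; 3 wk; 0–5 rating.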

Scirpus juncoides [2] = experiment: Test Example 1: herbicidal activity, application before weed generation in submerged conditions; settings: Application herbicide amount 320 g/ha; Seventeenth Table
How it was run: as §1

Monochoria vaginalis [3] = experiment: as above; settings: Application herbicide amount 320 g/ha; Seventeenth Table
How it was run: as §1

[4] = tested on: Echinochloa oryzacola Vasing.; experiment: as above; settings: Application herbicide amount 320 g/ha; Seventeenth Table
How it was run: as §1

Scirpus juncoides [5] = experiment: Test Example 2: herbicidal activity, application during weed generation in submerged conditions; settings: Eighteenth Table; application herbicide amount 320 g/ha
How it was run: (§2)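 Paddy-type pot test: flooded soil, 4 cm depth, greenhouse 25–30 °C. Emulsion formulation diluted in water, applied to water surface at 1–2 leaf stage; rate expressed as g/ha. Read-out at 3 wk, 0–5 score.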

Monochoria vaginalis [6] = experiment: as above; settings: Eighteenth Table; application herbicide amount 320 g/ha
How it was run: as §2

[7] = tested on: Echinochloa oryzacola Vasing.; experiment: as above; settings: Eighteenth Table; application herbicide amount 320 g/ha
How it was run: as §2

Row | Structure (SMILES) | a: transplanted Oryza sativa (effect on crop grade) [1] | B: Scirpus juncoides (herbicidal effect grade) (Scirpus juncoides [2]) | C: Monochoria vaginalis (herbicidal effect grade) (Monochoria vaginalis [3]) | A: Echinochloa oryzicola Vasing. (herbicidal effect grade) [4] | B (Scirpus juncoides) herbicidal ratio grade (Scirpus juncoides [5]) | C (Monochoria vaginalis) herbicidal ratio grade (Monochoria vaginalis [6]) | A (Echinochloa oryzicola Vasing.) herbicidal ratio grade [7]
1 | COc1ccc(CSc2nnc3c(C(=O)Nc4nnc(C)o4)ccc(C(F)(F)F)n23)cc1 [1-114] | 0 (Herbicidal ratio of 5% or less (almost no effect)) | 2 (Herbicidal ratio of 20% or more and less than 40%) | 0 (Herbicidal ratio of 5% or less (almost no effect)) | 3 (Herbicidal ratio of 40% or more and less than 70%) | 1 (Herbicidal ratio of 5% or more and less than 20%) | 0 (Herbicidal ratio of 5% or less (almost no effect)) | 0 (Herbicidal ratio of 5% or less (almost no effect))
2 | Cc1nnc(NC(=O)c2ccc(C(F)(F)F)n3c(SCC4CCCO4)nnc23)o1 (stereo not shown) [1-116] | 0 (Herbicidal ratio of 5% or less (almost no effect)) | 4 (Herbicidal ratio of 70% or more and less than 90%) | 2 (Herbicidal ratio of 20% or more and less than 40%) | 5 (Herbicidal ratio of 90% or more (almost completely withered)) | 4 (Herbicidal ratio of 70% or more and less than 90%) | 0 (Herbicidal ratio of 5% or less (almost no effect)) | 3 (Herbicidal ratio of 40% or more and less than 70%)
3 | Cc1nnc(NC(=O)c2ccc(C(F)(F)F)n3c(N4CCSCC4)nnc23)o1 [1-118] | 2 (Herbicidal ratio of 20% or more and less than 40%) | 2 (Herbicidal ratio of 20% or more and less than 40%) | 0 (Herbicidal ratio of 5% or less (almost no effect)) | 3 (Herbicidal ratio of 40% or more and less than 70%) | 3 (Herbicidal ratio of 40% or more and less than 70%) | 0 (Herbicidal ratio of 5% or less (almost no effect)) | 2 (Herbicidal ratio of 20% or more and less than 40%)
4 | Cc1nnc(NC(=O)c2ccc(C(F)(F)F)n3c(N4CC[S+]([O-])CC4)nnc23)o1 [1-119] | 3 (Herbicidal ratio of 40% or more and less than 70%) | 1 (Herbicidal ratio of 5% or more and less than 20%) | 0 (Herbicidal ratio of 5% or less (almost no effect)) | 2 (Herbicidal ratio of 20% or more and less than 40%) | 1 (Herbicidal ratio of 5% or more and less than 20%) | 0 (Herbicidal ratio of 5% or less (almost no effect)) | 4 (Herbicidal ratio of 70% or more and less than 90%)
5 | Cc1nnc(NC(=O)c2ccc(C(F)(F)F)n3c(N4CCS(=O)(=O)CC4)nnc23)o1 [1-120] | 3 (Herbicidal ratio of 40% or more and less than 70%) | 3 (Herbicidal ratio of 40% or more and less than 70%) | 1 (Herbicidal ratio of 5% or more and less than 20%) | 5 (Herbicidal ratio of 90% or more (almost completely withered)) | 3 (Herbicidal ratio of 40% or more and less than 70%) | 2 (Herbicidal ratio of 20% or more and less than 40%) | 3 (Herbicidal ratio of 40% or more and less than 70%)
6 | COCCN(C)c1nnc2c(C(=O)Nc3nnco3)ccc(C(F)(F)F)n12 [1-121] | 3 (Herbicidal ratio of 40% or more and less than 70%) | 4 (Herbicidal ratio of 70% or more and less than 90%) | 4 (Herbicidal ratio of 70% or more and less than 90%) | 5 (Herbicidal ratio of 90% or more (almost completely withered)) | 4 (Herbicidal ratio of 70% or more and less than 90%) | 4 (Herbicidal ratio of 70% or more and less than 90%) | 4 (Herbicidal ratio of 70% or more and less than 90%)
7 | CC(C)N(C)c1nnc2c(C(=O)Nc3nnco3)ccc(C(F)(F)F)n12 [1-122] | 3 (Herbicidal ratio of 40% or more and less than 70%) | 5 (Herbicidal ratio of 90% or more (almost completely withered)) | 5 (Herbicidal ratio of 90% or more (almost completely withered)) | 5 (Herbicidal ratio of 90% or more (almost completely withered)) | 3 (Herbicidal ratio of 40% or more and less than 70%) | 3 (Herbicidal ratio of 40% or more and less than 70%) | 4 (Herbicidal ratio of 70% or more and less than 90%)
8 | CN(c1nnc2c(C(=O)Nc3nnco3)ccc(C(F)(F)F)n12)C1CCCCC1 [1-123] | 1 (Herbicidal ratio of 5% or more and less than 20%) | 4 (Herbicidal ratio of 70% or more and less than 90%) | 4 (Herbicidal ratio of 70% or more and less than 90%) | 5 (Herbicidal ratio of 90% or more (almost completely withered)) | 2 (Herbicidal ratio of 20% or more and less than 40%) | 3 (Herbicidal ratio of 40% or more and less than 70%) | 3 (Herbicidal ratio of 40% or more and less than 70%)
9 | Cc1nnc(NC(=O)c2ccc(C(F)(F)F)n3c(SCC(F)(F)F)nnc23)o1 [1-124] | 0 (Herbicidal ratio of 5% or less (almost no effect)) | 3 (Herbicidal ratio of 40% or more and less than 70%) | 1 (Herbicidal ratio of 5% or more and less than 20%) | 3 (Herbicidal ratio of 40% or more and less than 70%) | 3 (Herbicidal ratio of 40% or more and less than 70%) | 1 (Herbicidal ratio of 5% or more and less than 20%) | 3 (Herbicidal ratio of 40% or more and less than 70%)
10 | CC(=O)CSc1nnc2c(C(=O)Nc3nnc(C)o3)ccc(C(F)(F)F)n12 [1-125] | 0 (Herbicidal ratio of 5% or less (almost no effect)) | 3 (Herbicidal ratio of 40% or more and less than 70%) | 1 (Herbicidal ratio of 5% or more and less than 20%) | 0 (Herbicidal ratio of 5% or less (almost no effect)) | 2 (Herbicidal ratio of 20% or more and less than 40%) | 1 (Herbicidal ratio of 5% or more and less than 20%) | 0 (Herbicidal ratio of 5% or less (almost no effect))
11 | Cc1nnc(NC(=O)c2ccc(C(F)(F)F)n3c(SCC4OCCO4)nnc23)o1 [1-126] | 0 (Herbicidal ratio of 5% or less (almost no effect)) | 4 (Herbicidal ratio of 70% or more and less than 90%) | 2 (Herbicidal ratio of 20% or more and less than 40%) | 3 (Herbicidal ratio of 40% or more and less than 70%) | 3 (Herbicidal ratio of 40% or more and less than 70%) | 3 (Herbicidal ratio of 40% or more and less than 70%) | 1 (Herbicidal ratio of 5% or more and less than 20%)
12 | COCCN(C)c1nnc2c(C(=O)Nc3nnc(C)o3)ccc(C(F)(F)F)n12 [1-129] | 1 (Herbicidal ratio of 5% or more and less than 20%) | 4 (Herbicidal ratio of 70% or more and less than 90%) | 3 (Herbicidal ratio of 40% or more and less than 70%) | 5 (Herbicidal ratio of 90% or more (almost completely withered)) | 4 (Herbicidal ratio of 70% or more and less than 90%) | 3 (Herbicidal ratio of 40% or more and less than 70%) | 3 (Herbicidal ratio of 40% or more and less than 70%)
13 | Cc1nnc(NC(=O)c2ccc(C(F)(F)F)n3c(NCC(F)(F)F)nnc23)o1 [1-131] | 0 (Herbicidal ratio of 5% or less (almost no effect)) | 1 (Herbicidal ratio of 5% or more and less than 20%) | 0 (Herbicidal ratio of 5% or less (almost no effect)) | 2 (Herbicidal ratio of 20% or more and less than 40%) | 1 (Herbicidal ratio of 5% or more and less than 20%) | 0 (Herbicidal ratio of 5% or less (almost no effect)) | 0 (Herbicidal ratio of 5% or less (almost no effect))
